The text below walks through data of patent publication US8367715B2, “Pyrazole derivatives, preparation thereof, and therapeutic use thereof” (priority 2009, dated 2013).

For one data set, the target named is FLT1 (Homo sapiens, UniProt P17948). Put plainly: FLT1 kinase phosphorylation activity by radioactive labeling. The data set is classed as biochemical. The conditions noted are these: read-out: FLT1, concentration that inhibits 50% of the kinase activity. The protocol:
3. […] The inhibition of the FLT1 activity is calculated and expressed as percentage of inhibition relative to the control activity determined in the absence of compound. The percentage of inhibition corresponding to each concentration of molecules is calculated thus: % inhibition=(mean CPM of the control wells−CPM of each)

A further data set addresses T1, human Tie2 (Homo sapiens, UniProt Q02763).
T1 construct: human Tie2 corresponding to the amino acids of the intracellular domain 774-1124; made in house; host or cells: baculovirus expression (pFastBacGT)
Put plainly: Tie2 kinase inhibition, phosphorylation of PLCγ substrate, scintillation Flash Plate. The data set is classed as biochemical. Particulars: read-out: Tie2, concentration that inhibits 50% of the kinase activity. The protocol:
(§1) The inhibitory effect of the compounds is determined in an in vitro test of phosphorylation of substrate via a scintillation technique (96-well plate of basic Flash Plate type).
The coding sequence of human Tie2 corresponding to the amino acids of the intracellular domain 774-1124 was introduced into a pFastBacGT baculovirus expression vector in the form of a GST fusion protein. GST-Tie2 was purified and activated by autophosphorylation. The substrate is composed of residues 658 to 850 of the PLCγ expressed and purified in the form of a GST fusion protein.
The kinase activity of Tie2 is measured in a MOPS 20 mM pH 7.4 buffer, containing 10 mM MgCl2, 10 mM MnCl2 and 1 mM DTT. The compounds are initially diluted in 100% DMSO, then prepared as a 10× solution in 30% DMSO/70% buffer. […] The radioactivity in each well is measured using a Trilux-βWallac radioactivity counter.
(§2) The background noise is determined by measuring the radioactivity in four different wells containing ATP (radiolabeled and cold) and the substrate, in the absence of enzyme and of compound. The control activity is measured in four different wells containing all the reagents, but in the absence of compound.
The inhibition of the Tie2 activity is calculated and expressed as a percentage of inhibition relative to the control activity determined in the absence of compound.

The target of the next data set is FGFR1 (Homo sapiens, UniProt P11362). The data set is described as follows: FGFR kinase phosphorylation activity by radioactive labeling. The class given is biochemical. Particulars: read-out: FGFR1, concentration that inhibits 50% of the kinase activity. The protocol:
5. Screening of Molecules by Measuring, by Radioactive Labeling, the FGFR Kinase Phosphorylation Activity in the Presence of PLCγ Substrate
The test is carried out in a similar manner to that carried out with the FLT1 enzyme by using, instead of 13 nM of Flt1, 27 nM of FGFR enzyme and mixed in the 96-well plates are 18 μl of GST-FGFR enzyme at 1.1 mg/ml (for a purity of 100%): (batch JCE3666).

The target in another data set is T2, human KDR enzyme (Homo sapiens, UniProt P35968).
T2 construct: The cytoplasmic domain (residues 790 to 1356) of the human KDR enzyme; GST; made in house; host or cells: SF21 insect cells (baculovirus, pFastBac)
T2 sequence (P35968 790-1356): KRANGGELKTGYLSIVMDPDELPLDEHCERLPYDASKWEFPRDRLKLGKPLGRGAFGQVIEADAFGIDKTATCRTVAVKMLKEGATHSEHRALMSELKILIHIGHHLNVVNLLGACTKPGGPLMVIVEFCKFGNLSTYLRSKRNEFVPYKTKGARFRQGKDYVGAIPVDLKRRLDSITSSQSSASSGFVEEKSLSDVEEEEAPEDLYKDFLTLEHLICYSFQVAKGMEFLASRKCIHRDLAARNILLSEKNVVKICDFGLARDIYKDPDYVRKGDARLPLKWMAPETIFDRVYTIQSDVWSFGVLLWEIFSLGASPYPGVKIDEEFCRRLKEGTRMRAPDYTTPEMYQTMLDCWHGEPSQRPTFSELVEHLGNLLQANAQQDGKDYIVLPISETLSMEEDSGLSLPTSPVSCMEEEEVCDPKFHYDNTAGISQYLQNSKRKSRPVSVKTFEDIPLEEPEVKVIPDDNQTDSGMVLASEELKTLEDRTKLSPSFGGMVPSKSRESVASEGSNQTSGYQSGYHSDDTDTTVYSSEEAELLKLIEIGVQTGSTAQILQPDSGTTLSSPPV
Put plainly: KDR kinase inhibition, phosphorylation of PLCγ substrate, scintillation Flash Plate. The class given is biochemical. The conditions noted are these: read-out: KDR, concentration that inhibits 50% of the kinase activity. The protocol: as §1
The cytoplasmic domain (residues 790 to 1356) of the human KDR enzyme was cloned in the form of a GST fusion in the pFastBac baculovirus expression vector. The protein was expressed in the SF21 cells, purified and activated by autophosphorylation. The substrate is composed of residues 658 to 850 of the PLCγ expressed and purified in the form of a GST fusion protein.
The KDR kinase activity is measured in the buffer 20 mM MOPS, 10 mM MgCl2, 10 mM MnCl2, 1 mM DTT, pH=7.4. The compounds are initially diluted in 100% DMSO, then prepared as a 10× solution in 30% DMSO/70% buffer. […] The radioactivity in each well is measured using a Trilux-βWallac radioactivity counter.
as §2
The inhibition of the KDR activity with the compound of the invention is expressed as a percentage of inhibition of the control activity determined in the absence of compound.

For a further data set, the system named is human hepatocytes. Put plainly: Intrinsic clearance using human hepatocytes. The data set is classed as in vitro ADME. The conditions noted are these: for intrinsic clearance value: 5 μM, 0-24 hours; for inter-individual variability of intrinsic clearance: cryopreserved and fresh donor preparations. The protocol:
Evaluation of the intrinsic clearance of the compounds using human hepatocytes: experimental protocol.
NB: The in vitro test described below on human liver cells is used to predict an important pharmacokinetic parameter: the metabolization by the liver for a given compound when it is administered to man.
Incubations of cryopreserved preparations of human hepatocytes (from IVT: IVT-TLN-180608 from In Vitro Technologies, inc. Baltimore, Md., USA) and fresh preparations of human hepatocytes (from Biopredic: HEP200239) were carried out in plates comprising 48 collagen-coated wells.
The kinetics were initiated by the addition, to the culture medium, of the compounds at a final concentration of 5 μM, in the absence or in the presence of 10 μM ketoconazole (CYP3A4 inhibitor). The incubation volume is 100 μl, the incubation time: 0-24 hours (standard kinetic points: 0-0.5-1-2-4-6-8-24 hours).
The kinetics were stopped by addition of acetonitrile/water, with corticosterone, as an internal standard. The cells were detached then lysed. The intracellular and extracellular media were recombined and frozen (−20° C.) in order to be stored until the LC-MS/MS analysis.
The combined extracellular and intracellular media were defrosted, submitted to ultrasound action, agitated with a vortex and centrifuged at 3000 g for 20 minutes. The supernatants were injected and analysed by LC-MS/MS.
The maximum initial in vitro rate was calculated for the specific metabolites of the P450 cytochromes and expressed in nmol/hour/million of cells. V=[concentration at T(n)−concentration at T(n−1)]/[T(n)−T(n−1)]
The intrinsic clearance was determined and expressed in ml/hour/million of cells Clint=dose/AUC0-24 h Dose=amount at T(0)(nmol/million of cells)
AUC0-24 h: calculated by WinNonlin, with a non-compartmental analysis modeling an intravenous injection of bolus type
From IVT: ● IVT, TLN group: person
From Biopredic: ● HEP200239: person, unknown

pIC50: −log10 of the molar value.

T1 sequence (Q02763 774-1124): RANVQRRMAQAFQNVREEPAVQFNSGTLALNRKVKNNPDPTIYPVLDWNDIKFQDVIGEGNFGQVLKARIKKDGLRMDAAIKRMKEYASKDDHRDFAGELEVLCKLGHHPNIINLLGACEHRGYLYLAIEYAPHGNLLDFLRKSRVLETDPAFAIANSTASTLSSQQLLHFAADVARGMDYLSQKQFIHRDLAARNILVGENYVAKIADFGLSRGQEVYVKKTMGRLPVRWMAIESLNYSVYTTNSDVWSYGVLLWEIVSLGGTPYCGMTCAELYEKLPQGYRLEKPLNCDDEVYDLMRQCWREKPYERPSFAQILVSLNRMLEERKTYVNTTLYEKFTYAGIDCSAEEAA
Sequence of FLT1 (P17948 27-1338, species assumed): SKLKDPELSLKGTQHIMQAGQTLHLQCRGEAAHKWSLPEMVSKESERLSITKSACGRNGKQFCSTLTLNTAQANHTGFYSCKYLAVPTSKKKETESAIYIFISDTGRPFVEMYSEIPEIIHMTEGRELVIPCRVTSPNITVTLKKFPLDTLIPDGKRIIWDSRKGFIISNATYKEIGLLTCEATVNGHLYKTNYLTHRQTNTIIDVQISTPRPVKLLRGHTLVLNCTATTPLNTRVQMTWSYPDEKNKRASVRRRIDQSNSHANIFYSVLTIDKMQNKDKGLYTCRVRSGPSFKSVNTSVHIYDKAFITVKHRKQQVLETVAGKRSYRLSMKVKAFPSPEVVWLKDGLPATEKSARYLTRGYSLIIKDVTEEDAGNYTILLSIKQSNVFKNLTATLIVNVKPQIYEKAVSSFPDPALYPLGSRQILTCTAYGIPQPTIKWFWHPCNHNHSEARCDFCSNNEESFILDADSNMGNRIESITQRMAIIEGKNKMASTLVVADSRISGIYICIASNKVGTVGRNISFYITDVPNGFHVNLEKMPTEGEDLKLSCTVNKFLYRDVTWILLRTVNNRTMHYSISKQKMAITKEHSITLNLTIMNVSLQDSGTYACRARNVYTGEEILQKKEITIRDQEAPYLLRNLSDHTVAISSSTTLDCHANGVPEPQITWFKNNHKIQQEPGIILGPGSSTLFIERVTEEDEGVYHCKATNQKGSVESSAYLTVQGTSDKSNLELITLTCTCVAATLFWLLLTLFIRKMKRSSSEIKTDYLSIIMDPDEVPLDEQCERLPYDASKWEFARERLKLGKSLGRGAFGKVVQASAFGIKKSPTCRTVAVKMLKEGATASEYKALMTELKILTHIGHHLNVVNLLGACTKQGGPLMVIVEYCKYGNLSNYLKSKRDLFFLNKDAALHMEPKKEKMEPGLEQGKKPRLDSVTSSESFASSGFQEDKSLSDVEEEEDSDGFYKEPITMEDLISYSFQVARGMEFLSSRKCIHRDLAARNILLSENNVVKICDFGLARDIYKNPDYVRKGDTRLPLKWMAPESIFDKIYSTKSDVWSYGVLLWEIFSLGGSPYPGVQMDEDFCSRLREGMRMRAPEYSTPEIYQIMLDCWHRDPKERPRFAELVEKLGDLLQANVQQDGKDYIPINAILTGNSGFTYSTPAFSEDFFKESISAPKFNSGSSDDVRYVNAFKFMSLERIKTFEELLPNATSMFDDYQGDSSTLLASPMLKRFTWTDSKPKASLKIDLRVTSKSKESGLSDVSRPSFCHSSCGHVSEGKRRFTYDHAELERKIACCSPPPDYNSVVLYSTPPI
Sequence of FGFR1 (P11362 22-822, species assumed): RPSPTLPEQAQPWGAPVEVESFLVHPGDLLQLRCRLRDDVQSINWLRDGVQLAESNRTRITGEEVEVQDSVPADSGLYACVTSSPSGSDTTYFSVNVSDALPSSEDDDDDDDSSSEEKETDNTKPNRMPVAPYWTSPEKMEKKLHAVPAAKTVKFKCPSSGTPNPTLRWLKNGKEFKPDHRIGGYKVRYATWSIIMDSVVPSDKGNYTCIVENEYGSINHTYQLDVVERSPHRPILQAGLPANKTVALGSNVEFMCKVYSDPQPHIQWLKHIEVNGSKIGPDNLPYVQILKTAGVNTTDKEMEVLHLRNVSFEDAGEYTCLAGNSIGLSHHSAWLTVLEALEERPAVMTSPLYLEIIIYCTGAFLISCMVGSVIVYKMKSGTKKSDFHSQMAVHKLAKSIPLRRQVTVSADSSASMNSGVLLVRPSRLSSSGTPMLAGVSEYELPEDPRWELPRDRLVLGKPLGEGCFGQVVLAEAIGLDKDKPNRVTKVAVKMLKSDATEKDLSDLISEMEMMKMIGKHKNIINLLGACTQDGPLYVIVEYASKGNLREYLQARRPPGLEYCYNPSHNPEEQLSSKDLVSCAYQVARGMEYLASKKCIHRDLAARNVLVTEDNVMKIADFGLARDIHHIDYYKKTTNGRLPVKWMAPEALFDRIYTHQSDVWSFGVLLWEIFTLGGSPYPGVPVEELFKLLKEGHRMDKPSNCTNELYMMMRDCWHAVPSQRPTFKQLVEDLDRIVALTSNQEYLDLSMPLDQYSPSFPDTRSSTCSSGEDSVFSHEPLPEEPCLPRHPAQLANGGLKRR

On to `Cl.NC(=O)c1n[nH]cc1NCc1cc(F)cc(NC(=O)Nc2ccc(C(F)(F)F)cc2Cl)c1` [Example 1, 4-{3-[3-(2-Chloro-4-trifluoromethylphenyl)ureido]-5-fluorobenzylamino}-1H-pyrazole-3-carboxamide hydrochloride], for which the pIC50 on FLT1 was 8.52; on human Tie2, 7.44; at FGFR1, 7.27; on human KDR enzyme it was 8.52. For the same compound, the “classification of the intrinsic clearance” value in the data set on human hepatocytes is “intermediate (Clint<0.040 ml·h^−1·10^−6 cell: intermediate intrinsic clearance)”. For the same compound, in the data set with human hepatocytes, the intrinsic clearance value is given as 0.057 ml/hour/million of cells. In the data set with human hepatocytes, the “inter-individual variability of intrinsic clearance” value was “low”.

As for `Cl.NC(=O)c1n[nH]cc1NCc1cc(F)cc(NC(=O)Nc2ccc(C(F)(F)F)cc2F)c1` [Example 2, 4-{3-[3-(2-Fluoro-4-trifluoromethylphenyl)ureido]-5-fluorobenzylamino}-1H-pyrazole-3-carboxamide hydrochloride], the pIC50 at FLT1 was 8.89; at human Tie2 it was 7.41; on FGFR1 it was 7.04; on human KDR enzyme it was 8.70. In the data set on human hepatocytes, the “classification of the intrinsic clearance” value is “intermediate (Clint<0.040 ml·h^−1·10^−6 cell: intermediate intrinsic clearance)”. The intrinsic clearance value in the data set on human hepatocytes is reported as 0.055 ml/h/million of cells. For the same compound, the “inter-individual variability of intrinsic clearance” value in the data set on human hepatocytes was “low”.
